Measurements as given in patent US9139557B2, “Carboxamide compounds and their use as calpain inhibitors” (Abbott GmbH & Co. KG, priority 2006, dated 2015).

Assays:
Format in all cases: biochemical
[1] = target: T1, cathepsin B (Homo sapiens, UniProt P07858); test: Cathepsin B enzyme inhibition in vitro (kinetic fluorescence assay); details: Ki(cathepsin B)/Ki(calpain) ratio
T1 construct: cathepsin B—isolated from human liver; purchased Calbiochem 219362; host or cells: human liver (tissue isolate)
How it was run: (§1)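 Kinetic fluorescence (ex 390/em 460 nm), room temperature: calpain-I (human erythrocyte, 20 nM) with 100 µM Suc-Leu-Tyr-AMC, imidazole/CaCl2 pH 7.3; cathepsin B (liver, 0.25 nM), 100 µM Z-Phe-Arg-AMC; L (liver, 1 nM), 2 µM Z-Phe-Arg-AMC; S (recombinant, 0.5 nM), 20 µM Z-Val-Val-Arg-AMC; cathepsins in MES/EDTA/cysteine pH 6.0. Apparent Ki via Cheng-Prusoff, 2–4 curves averaged.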

[2] = target: T2, cathepsin L (Homo sapiens, UniProt P07711); test: Cathepsin L enzyme inhibition in vitro (kinetic fluorescence assay); details: Ki(cathepsin L)/Ki(calpain) ratio
T2 construct: cathepsin L—isolated from human liver; purchased Calbiochem 219402; host or cells: human liver (tissue isolate)
How it was run: as §1

[3] = target: T3, cathepsin K (Homo sapiens, UniProt P43235); test: Cathepsin K enzyme inhibition in vitro (kinetic fluorescence assay); details: Ki(cathepsin K)/Ki(calpain) ratio
T3 construct: purchased Calbiochem 342001; host or cells: E. coli
T3 sequence (P43235 115-329): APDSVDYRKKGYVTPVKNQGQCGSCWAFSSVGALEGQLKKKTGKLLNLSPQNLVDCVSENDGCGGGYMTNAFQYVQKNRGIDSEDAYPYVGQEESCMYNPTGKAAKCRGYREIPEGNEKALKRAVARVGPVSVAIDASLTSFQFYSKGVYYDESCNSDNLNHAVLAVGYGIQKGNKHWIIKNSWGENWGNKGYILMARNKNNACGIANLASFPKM

[4] = target: T4, cathepsin S (Homo sapiens, UniProt P25774); test: Cathepsin S enzyme inhibition in vitro (kinetic fluorescence assay); details: Ki(cathepsin S)/Ki(calpain) ratio
T4 construct: purchased Calbiochem 219343; host or cells: E. coli
How it was run: as §1

T2 sequence (P07711 114-333): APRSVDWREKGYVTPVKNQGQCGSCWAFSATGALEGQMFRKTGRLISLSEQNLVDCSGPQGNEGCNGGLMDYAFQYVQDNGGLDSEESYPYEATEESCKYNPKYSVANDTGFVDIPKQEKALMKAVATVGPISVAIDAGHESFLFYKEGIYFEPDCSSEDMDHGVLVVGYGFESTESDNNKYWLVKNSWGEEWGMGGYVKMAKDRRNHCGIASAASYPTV
T4 sequence (P25774 115-331): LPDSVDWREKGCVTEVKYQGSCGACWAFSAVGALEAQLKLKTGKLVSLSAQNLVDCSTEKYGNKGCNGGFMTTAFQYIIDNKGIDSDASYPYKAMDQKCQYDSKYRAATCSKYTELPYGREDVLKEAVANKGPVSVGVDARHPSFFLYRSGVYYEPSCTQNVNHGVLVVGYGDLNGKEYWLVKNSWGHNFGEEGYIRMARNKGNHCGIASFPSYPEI

Row | Compound | Sel cat. B [1] | Sel cat. L [2] | Sel cat. K [3] | Sel cat. S [4]
1 | COc1ccc(CC(NC(=O)c2cccnc2-n2ccc(-c3ccc(F)cc3Cl)n2)C(=O)C(N)=O)cc1 (centres unmarked) [Example 111, N-(3-Amino-1-{[4-(methyloxy)phenyl]methyl}-2,3-dioxopropyl)-2-[3-(2-chloro-4-fluorophenyl)-1H-pyrazol-1-yl]pyridine-3-carboxamide] | ++ (++ means a Ki(cathepsin B)/Ki(calpain) ratio of ≧30) | ++ (++ means a Ki(cathepsin L)/Ki(calpain) ratio of ≧50) | ++ (++ means a Ki(cathepsin K)/Ki(calpain) ratio of ≧30) | ++ (++ means a Ki(cathepsin S)/Ki(calpain) ratio of ≧100)
2 | NC(=O)C(=O)C(Cc1ccccc1)NC(=O)c1cccnc1-n1ccc(-c2cccc(OCc3ccccc3)c2)n1 (centres unmarked) [Example 96, N-[3-Amino-2,3-dioxo-1-(phenylmethyl)propyl]-2-(3-{3-[(phenylmethyl)oxy]phenyl}-1H-pyrazol-1-yl)pyridine-3-carboxamide] | ++ (++ means a Ki(cathepsin B)/Ki(calpain) ratio of ≧30) | ++ (++ means a Ki(cathepsin L)/Ki(calpain) ratio of ≧50) | ++ (++ means a Ki(cathepsin K)/Ki(calpain) ratio of ≧30) | ++ (++ means a Ki(cathepsin S)/Ki(calpain) ratio of ≧100)
3 | NC(=O)C(=O)C(Cc1ccccc1)NC(=O)c1cccnc1-n1cc2c(n1)-c1ccccc1S(=O)(=O)C2 (centres unmarked) [Example 174, N-[3-Amino-2,3-dioxo-1-(phenylmethyl)propyl]-2-(5,5-dioxidothiochromeno[4,3-c]pyrazol-2(4H)-yl)pyridine-3-carboxamide] | + (+ means 10≦Ki(cathepsin B)/Ki(calpain)<30) | ++ (++ means a Ki(cathepsin L)/Ki(calpain) ratio of ≧50) | + (+ means 10≦Ki(cathepsin K)/Ki(calpain)<30) | ++ (++ means a Ki(cathepsin S)/Ki(calpain) ratio of ≧100)
4 | NC(=O)C(=O)C(Cc1ccccc1)NC(=O)c1cccnc1-n1ccc(-c2ccccc2)n1 (centres unmarked) [Example 5, N-(3-Amino-1-benzyl-2,3-dioxopropyl)-2-(3-phenyl-1H-pyrazol-1-yl)nicotinamide] | + (+ means 10≦Ki(cathepsin B)/Ki(calpain)<30) | ++ (++ means a Ki(cathepsin L)/Ki(calpain) ratio of ≧50) | + (+ means 10≦Ki(cathepsin K)/Ki(calpain)<30) | ++ (++ means a Ki(cathepsin S)/Ki(calpain) ratio of ≧100)
5 | COc1ccc(CC(NC(=O)c2cccnc2-n2ccc(-c3cccc4ccccc34)n2)C(=O)C(N)=O)cc1 (centres unmarked) [Example 135, N-(3-Amino-1-{[4-(methyloxy)phenyl]methyl}-2,3-dioxopropyl)-2-(3-naphthalen-1-yl-1H-pyrazol-1-yl)pyridine-3-carboxamide] | ++ (++ means a Ki(cathepsin B)/Ki(calpain) ratio of ≧30) | ++ (++ means a Ki(cathepsin L)/Ki(calpain) ratio of ≧50) | ++ (++ means a Ki(cathepsin K)/Ki(calpain) ratio of ≧30) | ++ (++ means a Ki(cathepsin S)/Ki(calpain) ratio of ≧100)
6 | COc1ccc(CC(NC(=O)c2cccnc2-n2ccc(-c3ccccc3)n2)C(=O)C(N)=O)cc1 (centres unmarked) [Example 80, N-[3-Amino-1-(4-methoxybenzyl)-2,3-dioxopropyl]-2-(3-phenyl-1H-pyrazol-1-yl)nicotinamide] | ++ (++ means a Ki(cathepsin B)/Ki(calpain) ratio of ≧30) | ++ (++ means a Ki(cathepsin L)/Ki(calpain) ratio of ≧50) | + (+ means 10≦Ki(cathepsin K)/Ki(calpain)<30) | ++ (++ means a Ki(cathepsin S)/Ki(calpain) ratio of ≧100)
7 | COc1ccc(Cl)cc1-c1ccn(-c2ncccc2C(=O)NC(Cc2ccccc2)C(=O)C(N)=O)n1 (centres unmarked) [Example 131, N-[3-Amino-2,3-dioxo-1-(phenylmethyl)propyl]-2-{3-[5-chloro-2-(methyloxy)phenyl]-1H-pyrazol-1-yl}pyridine-3-carboxamide] | ++ (++ means a Ki(cathepsin B)/Ki(calpain) ratio of ≧30) | ++ (++ means a Ki(cathepsin L)/Ki(calpain) ratio of ≧50) | ++ (++ means a Ki(cathepsin K)/Ki(calpain) ratio of ≧30) | ++ (++ means a Ki(cathepsin S)/Ki(calpain) ratio of ≧100)
8 | Cl.NC(=O)C(=O)C(Cc1cccnc1)NC(=O)c1cccnc1-n1ccc(-c2ccccc2)n1 (centres unmarked) [Example 88, N-[3-Amino-2,3-dioxo-1-(pyridin-3-ylmethyl)propyl]-2-(3-phenyl-1H-pyrazol-1-yl)pyridine-3-carboxamide hydrochloride] | + (+ means 10≦Ki(cathepsin B)/Ki(calpain)<30) | ++ (++ means a Ki(cathepsin L)/Ki(calpain) ratio of ≧50) | ++ (++ means a Ki(cathepsin K)/Ki(calpain) ratio of ≧30) | ++ (++ means a Ki(cathepsin S)/Ki(calpain) ratio of ≧100)
9 | COc1cc(F)ccc1-c1ccn(-c2ncccc2C(=O)NC(Cc2ccccc2)C(=O)C(N)=O)n1 (centres unmarked) [Example 125, N-[3-Amino-2,3-dioxo-1-(phenylmethyl)propyl]-2-{3-[4-fluoro-2-(methyloxy)phenyl]-1H-pyrazol-1-yl}pyridine-3-carboxamide] | ++ (++ means a Ki(cathepsin B)/Ki(calpain) ratio of ≧30) | ++ (++ means a Ki(cathepsin L)/Ki(calpain) ratio of ≧50) | ++ (++ means a Ki(cathepsin K)/Ki(calpain) ratio of ≧30) | ++ (++ means a Ki(cathepsin S)/Ki(calpain) ratio of ≧100)
10 | N-[3-Amino-2,3-dioxo-1-(phenylmethyl)propyl]-2-[3-(3,5-dichlorophenyl)-1H-pyrazol-1-yl]pyridine-3-carboxamide [Example 89] | + (+ means 10≦Ki(cathepsin B)/Ki(calpain)<30) | ++ (++ means a Ki(cathepsin L)/Ki(calpain) ratio of ≧50) | + (+ means 10≦Ki(cathepsin K)/Ki(calpain)<30) | ++ (++ means a Ki(cathepsin S)/Ki(calpain) ratio of ≧100)
11 | NC(=O)C(=O)C(Cc1ccccc1)NC(=O)c1cccnc1-n1ccc(-c2cccs2)n1 (centres unmarked) [Example 55, N-(3-Amino-1-benzyl-2,3-dioxopropyl)-2-[3-(2-thienyl)-1H-pyrazol-1-yl]nicotinamide] | + (+ means 10≦Ki(cathepsin B)/Ki(calpain)<30) | ++ (++ means a Ki(cathepsin L)/Ki(calpain) ratio of ≧50) | + (+ means 10≦Ki(cathepsin K)/Ki(calpain)<30) | ++ (++ means a Ki(cathepsin S)/Ki(calpain) ratio of ≧100)
12 | NC(=O)C(=O)C(Cc1cccc(F)c1)NC(=O)c1cccnc1-n1ccc(-c2ccccc2OC(F)(F)F)n1 (centres unmarked) [Example 162, N-{3-Amino-1-[(3-fluorophenyl)methyl]-2,3-dioxopropyl}-2-(3-{2-[(trifluoromethyl)oxy]phenyl}-1H-pyrazol-1-yl)pyridine-3-carboxamide] | ++ (++ means a Ki(cathepsin B)/Ki(calpain) ratio of ≧30) | ++ (++ means a Ki(cathepsin L)/Ki(calpain) ratio of ≧50) | ++ (++ means a Ki(cathepsin K)/Ki(calpain) ratio of ≧30) | ++ (++ means a Ki(cathepsin S)/Ki(calpain) ratio of ≧100)
13 | NC(=O)C(=O)C(Cc1ccccc1)NC(=O)c1cccnc1-n1ccc(-c2cc(F)cc(F)c2)n1 (centres unmarked) [Example 91, N-[3-Amino-2,3-dioxo-1-(phenylmethyl)propyl]-2-[3-(3,5-difluorophenyl)-1H-pyrazol-1-yl]pyridine-3-carboxamide] | ++ (++ means a Ki(cathepsin B)/Ki(calpain) ratio of ≧30) | ++ (++ means a Ki(cathepsin L)/Ki(calpain) ratio of ≧50) | + (+ means 10≦Ki(cathepsin K)/Ki(calpain)<30) | ++ (++ means a Ki(cathepsin S)/Ki(calpain) ratio of ≧100)
14 | NC(=O)C(=O)C(Cc1ccc(Cl)cc1)NC(=O)c1cccnc1-n1ccc(-c2ccc(F)cc2)n1 (centres unmarked) [Example 67, N-[3-Amino-1-(4-chlorobenzyl)-2,3-dioxopropyl]-2-[3-(4-fluorophenyl)-1H-pyrazol-1-yl]nicotinamide] | + (+ means 10≦Ki(cathepsin B)/Ki(calpain)<30) | ++ (++ means a Ki(cathepsin L)/Ki(calpain) ratio of ≧50) | + (+ means 10≦Ki(cathepsin K)/Ki(calpain)<30) | ++ (++ means a Ki(cathepsin S)/Ki(calpain) ratio of ≧100)
